Laboratory results published in article PMC12586182 (Frontiers in Oncology, 2025).

Columns and labels:
Test in all cases: Kinase panel profiling at 1 µmol/L (mobility shift assay, Carna)
Assay type in all cases: biochemical
Details in all cases: 1 µmol/L of BTK inhibitor
MAPKAPK5 = biological target: T1, MAPKAPK5 (Homo sapiens, UniProt Q8IW41)
T1 construct: purchased Carna Biosciences
T1 sequence (Q8IW41 1-473): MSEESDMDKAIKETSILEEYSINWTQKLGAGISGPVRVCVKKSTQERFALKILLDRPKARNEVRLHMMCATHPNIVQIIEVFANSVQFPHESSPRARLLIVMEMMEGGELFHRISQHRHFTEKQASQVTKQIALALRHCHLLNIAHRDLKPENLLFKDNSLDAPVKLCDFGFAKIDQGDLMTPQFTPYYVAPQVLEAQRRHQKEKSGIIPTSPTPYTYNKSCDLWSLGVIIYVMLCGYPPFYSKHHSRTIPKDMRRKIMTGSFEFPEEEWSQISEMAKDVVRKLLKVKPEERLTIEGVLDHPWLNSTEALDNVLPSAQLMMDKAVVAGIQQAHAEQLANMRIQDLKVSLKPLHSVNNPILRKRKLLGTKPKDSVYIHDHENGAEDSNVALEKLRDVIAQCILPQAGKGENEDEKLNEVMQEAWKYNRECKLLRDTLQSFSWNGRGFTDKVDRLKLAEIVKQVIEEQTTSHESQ

PHKG1 = biological target: T2, PHKG1 (Homo sapiens, UniProt Q16816)
T2 construct: purchased Carna Biosciences
T2 sequence (Q16816 whole entry): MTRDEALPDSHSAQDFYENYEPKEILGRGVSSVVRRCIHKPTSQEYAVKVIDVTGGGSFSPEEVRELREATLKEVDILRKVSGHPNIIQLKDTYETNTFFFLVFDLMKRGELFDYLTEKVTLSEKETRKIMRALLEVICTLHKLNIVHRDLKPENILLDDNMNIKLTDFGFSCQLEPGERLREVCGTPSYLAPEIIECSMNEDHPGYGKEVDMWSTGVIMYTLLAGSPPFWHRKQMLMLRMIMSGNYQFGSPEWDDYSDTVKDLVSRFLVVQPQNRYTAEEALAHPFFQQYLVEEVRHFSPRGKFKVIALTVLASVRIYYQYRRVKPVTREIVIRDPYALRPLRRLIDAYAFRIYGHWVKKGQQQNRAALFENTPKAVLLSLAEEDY

PKD2 = biological target: T3, PKD2 (Homo sapiens, UniProt Q9BZL6)
T3 construct: purchased Carna Biosciences
T3 sequence (Q9BZL6 1-878): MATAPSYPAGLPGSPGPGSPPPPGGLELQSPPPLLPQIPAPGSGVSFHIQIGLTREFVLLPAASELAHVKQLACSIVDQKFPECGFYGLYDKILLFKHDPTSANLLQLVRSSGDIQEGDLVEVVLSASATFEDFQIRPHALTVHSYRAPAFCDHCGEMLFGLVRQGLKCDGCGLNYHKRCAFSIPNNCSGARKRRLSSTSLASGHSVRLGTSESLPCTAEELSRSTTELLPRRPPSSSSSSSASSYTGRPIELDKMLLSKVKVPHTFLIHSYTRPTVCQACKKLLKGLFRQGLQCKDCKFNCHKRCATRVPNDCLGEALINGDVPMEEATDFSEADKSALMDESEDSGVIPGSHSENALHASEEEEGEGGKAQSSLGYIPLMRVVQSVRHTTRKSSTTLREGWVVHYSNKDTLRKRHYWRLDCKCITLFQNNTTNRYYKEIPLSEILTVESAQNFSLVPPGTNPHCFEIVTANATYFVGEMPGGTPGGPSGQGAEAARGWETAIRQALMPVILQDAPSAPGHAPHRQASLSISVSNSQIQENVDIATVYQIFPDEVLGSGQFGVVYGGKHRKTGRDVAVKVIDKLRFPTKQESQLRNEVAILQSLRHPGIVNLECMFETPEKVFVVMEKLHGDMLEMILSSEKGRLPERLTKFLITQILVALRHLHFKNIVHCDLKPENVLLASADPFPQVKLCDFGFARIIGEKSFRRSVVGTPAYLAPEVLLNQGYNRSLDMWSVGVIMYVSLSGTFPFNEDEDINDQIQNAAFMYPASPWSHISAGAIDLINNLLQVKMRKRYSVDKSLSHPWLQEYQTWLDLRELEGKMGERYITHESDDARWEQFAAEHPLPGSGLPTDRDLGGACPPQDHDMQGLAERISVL

TAOK2 = biological target: T4, TAOK2 (Homo sapiens, UniProt Q9UL54)
T4 construct: purchased Carna Biosciences
T4 sequence (Q9UL54 1-1235): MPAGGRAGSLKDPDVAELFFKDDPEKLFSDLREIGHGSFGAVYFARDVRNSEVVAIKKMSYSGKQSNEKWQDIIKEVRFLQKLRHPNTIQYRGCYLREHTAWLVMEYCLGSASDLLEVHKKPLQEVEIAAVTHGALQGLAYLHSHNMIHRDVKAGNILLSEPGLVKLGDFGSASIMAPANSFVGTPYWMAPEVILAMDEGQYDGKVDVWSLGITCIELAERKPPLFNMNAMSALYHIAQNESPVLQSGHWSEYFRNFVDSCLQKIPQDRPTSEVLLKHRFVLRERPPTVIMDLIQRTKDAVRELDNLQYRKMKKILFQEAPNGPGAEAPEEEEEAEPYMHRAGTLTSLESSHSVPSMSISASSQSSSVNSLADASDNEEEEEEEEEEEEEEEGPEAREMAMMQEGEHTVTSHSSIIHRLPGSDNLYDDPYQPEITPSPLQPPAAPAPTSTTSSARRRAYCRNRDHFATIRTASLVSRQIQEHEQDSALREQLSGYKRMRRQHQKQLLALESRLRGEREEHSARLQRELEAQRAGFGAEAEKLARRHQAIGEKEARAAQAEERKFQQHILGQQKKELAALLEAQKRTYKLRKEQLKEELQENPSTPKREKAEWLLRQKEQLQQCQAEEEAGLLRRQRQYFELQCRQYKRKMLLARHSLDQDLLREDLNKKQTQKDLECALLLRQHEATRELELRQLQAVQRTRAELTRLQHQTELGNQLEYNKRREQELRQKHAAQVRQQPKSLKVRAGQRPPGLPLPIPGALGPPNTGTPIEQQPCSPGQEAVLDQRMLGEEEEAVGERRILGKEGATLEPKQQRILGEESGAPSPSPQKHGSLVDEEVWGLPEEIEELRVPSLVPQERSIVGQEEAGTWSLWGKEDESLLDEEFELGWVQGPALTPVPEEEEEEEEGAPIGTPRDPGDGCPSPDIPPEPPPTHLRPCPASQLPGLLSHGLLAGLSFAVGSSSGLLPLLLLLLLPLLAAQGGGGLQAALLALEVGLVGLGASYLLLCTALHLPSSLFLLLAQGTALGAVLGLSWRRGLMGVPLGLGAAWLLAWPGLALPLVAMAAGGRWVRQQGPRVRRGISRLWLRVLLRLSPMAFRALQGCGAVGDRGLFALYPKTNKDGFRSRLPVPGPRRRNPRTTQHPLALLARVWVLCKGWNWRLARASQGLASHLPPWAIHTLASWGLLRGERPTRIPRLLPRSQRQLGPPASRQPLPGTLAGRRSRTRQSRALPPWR

LCK = biological target: T5, LCK (Homo sapiens, UniProt P06239)
T5 construct: purchased Carna Biosciences
T5 sequence (P06239 whole entry): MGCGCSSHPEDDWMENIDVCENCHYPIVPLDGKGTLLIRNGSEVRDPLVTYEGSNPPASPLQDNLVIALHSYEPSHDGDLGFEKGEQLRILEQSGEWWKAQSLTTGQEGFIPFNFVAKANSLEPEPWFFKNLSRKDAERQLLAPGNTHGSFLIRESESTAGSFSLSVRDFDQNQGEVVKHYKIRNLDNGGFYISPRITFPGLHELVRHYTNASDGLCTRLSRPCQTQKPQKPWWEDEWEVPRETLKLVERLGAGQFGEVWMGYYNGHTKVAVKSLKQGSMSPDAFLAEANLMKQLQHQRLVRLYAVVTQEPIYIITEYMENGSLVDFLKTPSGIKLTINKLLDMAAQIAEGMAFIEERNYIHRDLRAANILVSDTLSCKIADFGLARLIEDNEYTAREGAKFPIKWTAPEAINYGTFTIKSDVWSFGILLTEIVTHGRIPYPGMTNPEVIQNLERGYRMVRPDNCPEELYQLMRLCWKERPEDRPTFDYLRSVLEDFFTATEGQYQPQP

QIK = biological target: T6, QIK (Homo sapiens, UniProt Q9H0K1)
T6 construct: purchased Carna Biosciences
T6 sequence (Q9H0K1 whole entry): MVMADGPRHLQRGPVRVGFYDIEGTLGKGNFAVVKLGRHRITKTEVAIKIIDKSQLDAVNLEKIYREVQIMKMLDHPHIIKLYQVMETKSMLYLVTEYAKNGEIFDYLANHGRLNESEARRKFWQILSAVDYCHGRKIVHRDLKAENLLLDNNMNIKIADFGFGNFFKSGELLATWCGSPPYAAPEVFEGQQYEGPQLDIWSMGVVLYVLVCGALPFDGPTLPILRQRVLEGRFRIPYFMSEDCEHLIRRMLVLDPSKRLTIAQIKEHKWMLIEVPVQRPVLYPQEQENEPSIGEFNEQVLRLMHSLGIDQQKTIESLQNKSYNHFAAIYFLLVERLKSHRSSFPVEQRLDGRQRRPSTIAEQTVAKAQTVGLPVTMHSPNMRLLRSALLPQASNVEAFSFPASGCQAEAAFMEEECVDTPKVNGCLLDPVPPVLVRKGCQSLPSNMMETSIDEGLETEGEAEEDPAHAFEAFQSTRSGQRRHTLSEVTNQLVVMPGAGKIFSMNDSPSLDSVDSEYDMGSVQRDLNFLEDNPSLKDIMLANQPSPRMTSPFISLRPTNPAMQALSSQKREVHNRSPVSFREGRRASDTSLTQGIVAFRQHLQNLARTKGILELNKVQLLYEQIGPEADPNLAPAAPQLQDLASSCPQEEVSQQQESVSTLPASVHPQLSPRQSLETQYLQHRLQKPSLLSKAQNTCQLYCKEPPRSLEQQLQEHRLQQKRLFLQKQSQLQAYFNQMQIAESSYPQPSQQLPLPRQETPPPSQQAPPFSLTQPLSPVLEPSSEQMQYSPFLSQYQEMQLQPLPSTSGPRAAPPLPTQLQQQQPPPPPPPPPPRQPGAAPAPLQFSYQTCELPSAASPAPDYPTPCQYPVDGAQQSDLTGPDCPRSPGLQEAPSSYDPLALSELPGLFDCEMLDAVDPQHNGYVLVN

MNK1 = biological target: T7, MNK1 (Homo sapiens, UniProt Q9BUB5)
T7 construct: purchased Carna Biosciences
T7 sequence (Q9BUB5 whole entry): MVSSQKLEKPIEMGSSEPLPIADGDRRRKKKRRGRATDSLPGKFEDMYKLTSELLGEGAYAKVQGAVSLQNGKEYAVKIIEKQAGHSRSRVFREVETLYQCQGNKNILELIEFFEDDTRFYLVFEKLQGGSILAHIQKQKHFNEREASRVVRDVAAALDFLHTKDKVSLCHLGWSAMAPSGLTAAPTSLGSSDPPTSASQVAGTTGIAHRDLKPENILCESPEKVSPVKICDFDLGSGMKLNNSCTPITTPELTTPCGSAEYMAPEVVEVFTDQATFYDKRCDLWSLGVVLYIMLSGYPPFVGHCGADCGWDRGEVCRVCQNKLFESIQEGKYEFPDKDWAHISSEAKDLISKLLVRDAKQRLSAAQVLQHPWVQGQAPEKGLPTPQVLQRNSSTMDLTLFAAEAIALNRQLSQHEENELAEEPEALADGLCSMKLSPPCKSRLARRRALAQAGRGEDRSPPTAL

FES = biological target: T8, FES (Homo sapiens, UniProt P07332)
T8 construct: purchased Carna Biosciences
T8 sequence (P07332 whole entry): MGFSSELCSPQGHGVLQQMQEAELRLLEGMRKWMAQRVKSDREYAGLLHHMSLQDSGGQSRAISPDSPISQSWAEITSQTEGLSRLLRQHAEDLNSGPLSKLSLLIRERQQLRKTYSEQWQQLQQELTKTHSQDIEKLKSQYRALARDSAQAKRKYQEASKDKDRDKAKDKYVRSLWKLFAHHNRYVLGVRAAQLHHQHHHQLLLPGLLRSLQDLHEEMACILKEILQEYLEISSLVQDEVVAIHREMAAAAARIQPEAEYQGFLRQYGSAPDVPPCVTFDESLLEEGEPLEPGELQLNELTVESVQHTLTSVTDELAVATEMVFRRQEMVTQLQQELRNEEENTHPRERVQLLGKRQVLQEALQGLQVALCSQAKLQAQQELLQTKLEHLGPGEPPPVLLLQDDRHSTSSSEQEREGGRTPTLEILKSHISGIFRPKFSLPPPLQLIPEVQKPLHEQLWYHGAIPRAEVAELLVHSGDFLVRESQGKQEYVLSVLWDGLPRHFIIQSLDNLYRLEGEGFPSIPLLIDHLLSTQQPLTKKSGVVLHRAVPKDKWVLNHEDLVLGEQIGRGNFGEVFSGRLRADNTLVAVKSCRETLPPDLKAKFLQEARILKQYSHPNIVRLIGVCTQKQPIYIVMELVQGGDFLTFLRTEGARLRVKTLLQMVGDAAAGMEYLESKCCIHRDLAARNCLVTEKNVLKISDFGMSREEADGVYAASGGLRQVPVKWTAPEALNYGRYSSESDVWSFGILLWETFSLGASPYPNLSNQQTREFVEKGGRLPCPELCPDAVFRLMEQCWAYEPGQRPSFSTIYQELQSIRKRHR

CC#CC(=O)N1CCC[C@H]1c1nc(-c2ccc(C(=O)Nc3ccccn3)cc2)c2c(N)nccn12 [acalabrutinib]
Percentage inhibition of kinase enzyme activity (MAPKAPK5): -1.87%
Percentage inhibition of kinase enzyme activity (PHKG1): -4.16%
Percentage inhibition of kinase enzyme activity (PKD2): -9.88%
Percentage inhibition of kinase enzyme activity (TAOK2): 5.31%
Percentage inhibition of kinase enzyme activity (LCK): 6.84%
Percentage inhibition of kinase enzyme activity (QIK): -0.22%
Percentage inhibition of kinase enzyme activity (MNK1): 11.59%
Percentage inhibition of kinase enzyme activity (FES): -6.35%

C=CC(=O)N1CCC[C@@H](n2nc(-c3ccc(Oc4ccccc4)cc3)c3c(N)ncnc32)C1 [ibrutinib]
Percentage inhibition of kinase enzyme activity (MAPKAPK5): -2.44%
Percentage inhibition of kinase enzyme activity (PHKG1): 1.53%
Percentage inhibition of kinase enzyme activity (PKD2): -3.20%
Percentage inhibition of kinase enzyme activity (TAOK2): 5.25%
Percentage inhibition of kinase enzyme activity (LCK): 100.25%
Percentage inhibition of kinase enzyme activity (QIK): 4.70%
Percentage inhibition of kinase enzyme activity (MNK1): 14.52%
Percentage inhibition of kinase enzyme activity (FES): 0.68%

O=C(c1ccc(Oc2ccccc2)cc1Cl)c1c[nH]c2ncnc(N[C@@H]3CC[C@@H](CO)OC3)c12 [nemtabrutinib]
Percentage inhibition of kinase enzyme activity (MAPKAPK5): -2.46%
Percentage inhibition of kinase enzyme activity (PHKG1): 7.46%
Percentage inhibition of kinase enzyme activity (PKD2): 7.65%
Percentage inhibition of kinase enzyme activity (TAOK2): 41.31%
Percentage inhibition of kinase enzyme activity (LCK): 70.86%
Percentage inhibition of kinase enzyme activity (QIK): 81.76%
Percentage inhibition of kinase enzyme activity (MNK1): 7.10%
Percentage inhibition of kinase enzyme activity (FES): 93.26%

COc1ccc(F)cc1C(=O)NCc1ccc(-c2nn([C@@H](C)C(F)(F)F)c(N)c2C(N)=O)cc1 [pirtobrutinib]
Percentage inhibition of kinase enzyme activity (MAPKAPK5): -1.10%
Percentage inhibition of kinase enzyme activity (PHKG1): 4.81%
Percentage inhibition of kinase enzyme activity (PKD2): -6.50%
Percentage inhibition of kinase enzyme activity (TAOK2): 1.74%
Percentage inhibition of kinase enzyme activity (LCK): 30.64%
Percentage inhibition of kinase enzyme activity (QIK): 8.30%
Percentage inhibition of kinase enzyme activity (MNK1): 2.15%
Percentage inhibition of kinase enzyme activity (FES): 11.87%

C=CC(=O)N1CCC([C@@H]2CCNc3c(C(N)=O)c(-c4ccc(Oc5ccccc5)cc4)nn32)CC1 [zanubrutinib]
Percentage inhibition of kinase enzyme activity (LCK): 0.21%
Percentage inhibition of kinase enzyme activity (FES): 4.53%
